Test results taken from patent US20260192003A1, “CHELATING COMPOUNDS AND METHODS OF USES THEREOF” (THE REGENTS OF THE UNIVERSITY OF CALIFORNIA, priority 2023, published 2026).
Like-named read-outs stand apart in the source and are kept apart here. Marks after values point to notes of the source that are not given here.

Legend:
[1] = Arsenazo III dye displacement, indirect kinetics of Th^4+ complexation; type: physicochemical; conditions: for k2: 5 μM Th^4+, 25 μM Arsenazo III, 75 μM ligand (15 equiv.), 100 mM HEPES (pH 7.4), 25° C.
Experimental: Another important aspect of chelators for radiopharmaceutical applications is the kinetics of complexation with the radiometal of interest. A ligand must be able to bind the radioactive metal ion rapidly and completely to minimize the extent of radioactive decay before administration in vivo. […] To access the suitability of DOTHOPO and MeDOTHOPO in this context, we sought to determine the kinetics of Th^4+ complexation of these chelators in aqueous solution at 25° C. […] Following literature precedent,^35 the relative rate of metal complexation by these ligands could be studied indirectly using the dye Arsenazo III, which forms highly colored complexes with Th^4+ with a prominent absorbance band at 669 nm.^92 The addition of excess chelator to solutions of Th^4+ and Arsenazo III caused the dye to be displaced and the formation of the metal-chelator complex could be monitored by the disappearance of the absorbance features corresponding to the metal-dye compound (FIG. 4).
The aim of these experiments was to determine a second-order rate constant for the complexation reaction of Th^4+ by DOTHOPO and MeDOTHOPO. […] For comparison purposes, the second-order rate constant of complexation was calculated using the reaction of 15 equiv. of ligand relative to metal (Table 4, see SI for details). The [ThL] (L=DOTHOPO, MeDOTHOPO) complexes form rapidly in aqueous solution. The second-order halflives, calculated for 10 μM each of metal and ligand, are 30 and 18 min for DOTHOPO and MeDOTHOPO respectively. The faster complexation kinetics of MeDOTHOPO compared to DOTHOPO can likely be attributed to the increased flexibility of the ligand.

[2] = previous work, similar conditions, room temperature, after 2 months; cited from earlier work
[3] = UV-vis spectrophotometric titration, cumulative formation constants and pM with Zr^4+; type: physicochemical; conditions: 25° C., I = 0.1M KCl; for pM, Zr^4+: pM = -log[M]free, [M]tot = 10^−6M, [L]tot = 10^−5M, pH 7.4, MeDOTHOPO predicted from Table 2 log β
From the text: (§1) We next sought to evaluate the thermodynamic stabilities of the Zr^4+ and Th^4+ complexes of DOTHOPO and MeDOTHOPO by measuring their cumulative formation constants (log βmlh, see Supplementary Information for details). […] Above pH 10, the complexes dissociate to yield the free ligand and metal-hydroxide species, which could be leveraged to determine the stability constants of the Zr^4+ and Th^4+ complexes via UV-vis spectrophotometric titrations (FIGS. 2 and 3). […] The pH dependent species distribution diagrams for DOTHOPO with Zr^4+ and Th^4+ are provided in the Supporting Information. Importantly, the metal remains completely bound by the chelator below pH 10 and the major species present at pH 7.4 is the 1:1 ML complex for both metals. […] As such, the log βmlh values of MeDOTHOPO with Zr^4+ and Th^4+ were predicted to be ≥51 and ≥53, respectively, using Hyss (Table 2).
(§2) The log βmlh values reported above are pH-independent absolute stability constants. Because these ligands have differing pKa values, competition between H^+ and the metal of interest under different pH conditions will give rise to different pH-dependent conditional stability constants that are not accurately described by log βML values. To mitigate this issue and allow for direct comparison between ligands, we calculated the pM values (pM=−log[Mfree], where Mfree=solvated metal ions free of complexation by ligand or hydroxide when [L]=10^−5 M and [M]=10^−6 M)^85 for each ligand with the Fe^3+, Zr^4+, and Th^4+ (Table 3).

[4] = Potentiometric titration, protonation constants (pKa); type: physicochemical; conditions: for ΣpKa: sum of the pKa values tentatively assigned to protonation of the HOPO units
Experimental: The protonation constants (pKa) of the synthesized ligands were determined potentiometrically in 0.1 M KCl. […] Based on previous studies involving ligands bearing the tetraazacyclododecane backbone,^80-82 the remaining two pKa values likely correspond to protonation of two of the amine groups present in the macrocycle (Table 1). The 1,2-HOPO donors of MeDOTHOPO are approximately 1 pKa unit more basic than those of 3,4,3-LI-(1,2-HOPO) or DOTHOPO.

[5] = UV-vis spectrophotometric titration, cumulative formation constants and pM with Th^4+; type: physicochemical; conditions: 25° C., I = 0.1M KCl; for pM, Th^4+: pM = -log[M]free, [M]tot = 10^−6M, [L]tot = 10^−5M, pH 7.4, MeDOTHOPO predicted from Table 2 log β
From the text: as §1, §2

[6] = Spectrophotometric titration, cumulative formation constants and pM with Fe^3+; type: physicochemical; conditions: 25° C., I = 0.1M KCl; for pM, Fe^3+: pM = -log[M]free, [M]tot = 10^−6M, [L]tot = 10^−5M, pH 7.4
Experimental: The affinity of these ligands for Fe3+ was explored as a representative endogenous metal that could compete with Th^4+ in vivo. The stability constants of DOTHOPO and MeDOTHOPO with Fe^3+ were determined by incremental spectrophotometric titrations, similar to those described for Zr^4+ and Th^4+ in the Supporting Information.
as §2

[7] = cited from earlier work
[8] = 25° C., I = 0.1M KCl; reference 48; cited from earlier work
[9] = 25° C., I = 0.1M KCl; reference 48; cited from earlier work; remark: listed apart in the source
[10] = cited from earlier work; remark: listed apart in the source
[11] = 25° C., I = 0.1M KCl, reference 48
[12] = 25° C., I = 0.1M KCl, data taken from Ref. 48

Row | SMILES | k2 [1] [M⁻¹ s⁻¹] | pM, Zr^4+ [3] | pKa1 ([4]; 25° C., I = 0.1M KCl, n = 5) | pKa2 ([4]; 25° C., I = 0.1M KCl, n = 5) | pKa3 ([4]; 25° C., I = 0.1M KCl, n = 5) | pKa4 ([4]; 25° C., I = 0.1M KCl, n = 5) | ΣpKa [4] | pM, Th^4+ [5] | log βmih, Fe^3+, [FeLH] [6] | log βmih, Fe^3+, [FeL]^− [6] | pM, Fe^3+ [6] | further results
1 | O=C(O)CN1CCN(CC(=O)O)CCN(CC(=O)O)CCN(CC(=O)O)CC1 [DOTA, 1,4,7,10-tetraazacyclododecane-N,N′,N″,N″-1,4,7,10-tetraacetic acid, reference compound] | – | – | – | – | – | – | – | – | – | – | – | complexation of Th^4+ (Arsenazo III displacement) ([1]; over 24 h at 25° C.): did not show any complexation; displacement of Arsenazo III from Th^4+ [2]: does not displace Arsenazo III
2 | O=c1cccc(CN2CCN(Cc3cccc(=O)n3O)CCN(Cc3cccc(=O)n3O)CCN(Cc3cccc(=O)n3O)CC2)n1O [MeDOTHOPO, 1,4,7,10-tetraazacyclododecane-1,4,7,10-tetra(methylene)tetrakis(1-hydroxy-2-pyridinone)] | 89.2 ± 8.5 | >46^b | 10.52(6) | 9.1(2) | 7.79(8) | 6.63(3) | 24.96 | >48^b | 39.5(4) | 30.3(2) | 27.6 | pKa5 ([4]; 25° C., I = 0.1M KCl, n = 5): 6.06(3); pKa6 ([4]; 25° C., I = 0.1M KCl, n = 5): 4.41(6)
3 | O=C(O)CN(CCN(CC(=O)O)CC(=O)O)CCN(CC(=O)O)CC(=O)O [DTPA, reference compound] | 7.9 ± 0.9 | – | – | – | – | – | – | – | – | – | – | –
4 | O=C(c1cccc(=O)n1O)N1CCN(C(=O)c2cccc(=O)n2O)CCN(C(=O)c2cccc(=O)n2O)CCN(C(=O)c2cccc(=O)n2O)CC1 [DOTHOPO] | 54.2 ± 2.8 | 43.7 | 6.43(9) | 5.46(1) | 5.05(3) | 4.28(6) | 21.34 | 35.3 | 33.3(6) | 27.8(4) | 28.7 | log βmih, Zr^4+, [ZrLH]^+ [3]: 47.0(6); log βmih, Zr^4+, [ZrL] [3]: 42.9(4); log βmih, Th^4+, [ThLH]^+ [5]: 38.5(1); log βmih, Th^4+, [ThL] [5]: 34.4(1)
5 | Cn1ccc(C(=O)NCCN(CCNC(=O)c2ccn(C)c(=O)c2O)CCC(Cc2ccc(NC(=O)CCC(=O)O)cc2)N(CCNC(=O)c2ccn(C)c(=O)c2O)CCNC(=O)c2ccn(C)c(=O)c2O)c(O)c1=O (centres unmarked) [L1] | – | 42.9 | – | – | – | – | – | 39.9 | – | – | 25.1 | log βmih, Th^4+, [ThH−1L]^2− [7, 11]: 32.4(4); log βmih, Th^4+, [ThLH] [7, 11]: 45.9(4); log βmih, Th^4+, [ThL]^− [7, 11]: 41.7(3); log βThL ([7]; background, literature value): 41.72; log βmih, Zr^4+, [ZrLH]^+ [8]: 50.6(2); log βmih, Zr^4+, [ZrL] [8]: 44.7(1); log βmih, Fe^3+, [FeLH] [9]: 31.2(4); log βmih, Fe^3+, [FeL]^− [9]: 26.9(3); pKa1 [10, 12]: 2.93(35); pKa2 [10, 12]: 4.39(8)^c; pKa3 [10, 12]: 4.73(34); pKa4 [10, 12]: 5.97(14); pKa5 [10, 12]: 6.90(5); pKa6 [10, 12]: 7.74(6); pKa7 [10, 12]: 9.58(16); ΣpKa ([10]; sum of the pKa values assigned to the HOPO units, Ref. 48): 21.99
